Tests used:
[1] = tested on: T1, AncB1B; assay: isothermal titration calorimetry; type: binding, synthetic construct; conditions: 25 °C, 20 mM Tris, 150 mM NaCl, pH 7.6; 10 µM propeller; single site model, five near-identical non-cooperative sites
T1 construct: single ancestral motif of about 47 residues, blade frame, first-library variant with F23L from error-prone PCR; homo-pentamer; E. coli (pET29), GlcNAc-resin purified

[2] = tested on: T2, AncA1B; assay: isothermal titration calorimetry; type: binding, synthetic construct; conditions: 25 °C, 20 mM Tris, 150 mM NaCl, pH 7.6; 10 µM propeller; single site model, five near-identical non-cooperative sites
T2 construct: single ancestral motif of about 47 residues, blade frame, from second ancestral library; homo-pentamer; E. coli (pET29), GlcNAc-resin purified

With `CC(=O)N[C@H]1C(O)O[C@H](CO)[C@@H](O)[C@@H]1O` (some centres unmarked) [GlcNAc] the binding affinity [1] was “The earliest evolutionary stage of single motifs was sampled using AncA1B and AncB1B” and the binding affinity [2] was “five different parameters were measured for representative variants along the evolutionary trajectory”.

Source: article PMC4735018, “De Novo Evolutionary Emergence of a Symmetrical Protein Is Shaped by Folding Constraints” (Cell, 2016)
